What was measured:
assembloids = test: Assembloids (organoid-derived epithelial cells plus DPSCs) cultured in TOM+αMEM with TGFβ receptor inhibitor; assay type: cell-based, human; conditions: inhibitor 5 μM in TOM+αMEM
Procedure: It was chosen to use DPSCs to mimic early stages of tooth development in which DPSC-derived odontoblasts are in close contact with ameloblasts. The DPSCs, isolated, grown and characterized using well-defined standard protocols, were combined with organoid-derived epithelial stem cells in a layered approach, thereby forming composite organoids (assembloids) which were cultured in a mixture of TOM and the DPSC growth medium αMEM (FIG. 6d).
Whereas ODAM is not present in the straight (pure) epithelial organoids cultured in TOM (see above and FIG. 12c), it is expressed in the assembloids (FIG. 6d). This induction is not due to the addition of αMEM to TOM (FIG. 12c). […]
Primary dental follicle tissue, organoids and assembloid were fixed in 4% PFA for 1h, embedded in paraffin, and sections subjected to hematoxylin and eosin (H&E), immunofluorescence or ARS staining. […] ImageJ software was used to quantify immunoreactive signal intensity and the ‘corrected total organoid fluorescence’ (CTOF) (=integrated density−(area of organoid×mean fluorescence of background readings).
RNA was extracted from dissociated dental follicle, organoids and assembloids using the GenElute Mammalian Total RNA Miniprep Kit (Sigma-Aldrich) according to the manufacturer's instructions. […] Relative gene expression levels were calculated as ΔCt (Ct target−Ct housekeeping gene) and compared to control (see figure legends).

tooth organoids [1] = test: Effect of TGFβ and TGFβ receptor inhibitor on differentiation of organoids switched to MIM; assay type: cell-based, human
Description: The above analyses exposed the enrichment of TGFβ pathway processes in tooth organoids subjected to ameloblast differentiation, in line with the proposed key role of TGFβ in amelogenesis. To assess the impact of the TGFβ pathway, organoids grown in TOM (P5) were switch to MIM with or without TGFβ (FIG. 6a).
During tooth root development, Hertwig's epithelial root sheath (HERS), from which epithelial cell rests of Malassez is eventually derived, undergoes EMT to develop to participate in periodontal ligament formation. It has previously been proposed that this EMT process is regulated by TGFβ, thereby triggering HERS/epithelial cell rests of Malassez cells to switch phenotype toward periodontal ligament cells.
Organoids (or dissociated dental follicle) were cultured in mineralization-inducing medium (MIM; Table 3; time schedule, see FIG. 4a and FIG. 10d) as described above. Recombinant human TGFβ1 (10 ng/ml; R&D) and the selective TGFβ receptor 1/2 inhibitor LY2109761 (5 μM; Selleckchem) were added when indicated.
(§1) Primary dental follicle tissue, organoids and assembloid were fixed in 4% PFA for 1h, embedded in paraffin, and sections subjected to hematoxylin and eosin (H&E), immunofluorescence or ARS staining. Antigen retrieval (10 mM citrate, pH6) and permeabilization (0.1% Triton X-100; Sigma-Aldrich) were performed. After incubation with primary and secondary antibodies (Table 5), sections were mounted with Vectashield (DAPI; Vector Laboratories) or DPX mountant (Sigma-Aldrich). Analysis was done using a Leica DM5500 epifluorescence microscope or a Zeiss Axioimager epifluorescence microscope. ImageJ software was used to quantify immunoreactive signal intensity and the ‘corrected total organoid fluorescence’ (CTOF) (=integrated density−(area of organoid×mean fluorescence of background readings).
(§2) RNA was extracted from dissociated dental follicle, organoids and assembloids using the GenElute Mammalian Total RNA Miniprep Kit (Sigma-Aldrich) according to the manufacturer's instructions. RNA was reverse-transcribed (RT) using the Superscript III First-Strand Synthesis Supermix (Thermo Fisher Scientific) and the resultant cDNA samples were analysed with SYBR Green-based quantitative PCR (qPCR) using the StepOnePlus Real-Time PCR System (AB Applied Biosystems). Forward and reverse primers (Table 6) were designed using PrimerBank and PrimerBlast. Glyceraldehyde-3-phosphate dehydrogenase (GAPDH) was included as housekeeping gene. Relative gene expression levels were calculated as ΔCt (Ct target−Ct housekeeping gene) and compared to control (see figure legends).

human dental follicle = test: Organoid formation from dissociated dental follicle; essentiality of medium factors assessed by omitting; assay type: cell-based; conditions: individual factor omitted from medium; P0, day 14 (FIG. 7a)
Description: To develop epithelial organoids starting from human tooth, the dental follicle, known to encompass a large mesenchymal component but also the small epithelial epithelial cell rests of Malassez compartment, was isolated from unerupted third molars (wisdom teeth) extracted from adolescent patients (FIG. 1a). After tissue dissociation, the epithelial-mesenchymal cell mixture, comprising single cells and cell clusters, was embedded in Matrigel and cultured in a precisely defined medium. Organoids are typically established using a cocktail of growth and regulatory factors active in the tissue's epithelial stem cell niche. In case niche signals are unresolved, factors with a key role in the tissue's embryonic development are applied. […] The starting point is a medium containing these factors as well as generic organoid growth factors (such as WNT activators, nicotinamide, BMP inhibitor and p38 MAPK inhibitor), and assessed the essentiality of individual factors by omitting. […] Eventually, this systematic evaluation led to defining an optimized medium (further referred to as tooth organoid medium or TOM; Table 1), allowing to develop organoid lines from dental follicle samples at 100% efficiency (Table 2).
Third molars, predominantly unerupted, were extracted from adolescent patients (Table 2) at the ‘Oral and Maxillo-Facial Surgery-Imaging & Pathology (OMFS-IMPATH)’ unit of University Hospitals (UZ) Leuven after informed consent. The study was approved by the Ethics Committee Research UZ/KU Leuven (13/0104U). For sample collection, the gingiva was pushed aside after which the bone was perforated and the third molars with associated dental follicles were carefully isolated (without the visually distinct gingiva). dental follicle tissue was diligently peeled from the tooth and collected in Eagle's Minimum Essential Medium (αMEM; Sigma-Aldrich) supplemented with 10% foetal bovine serum (FBS; Sigma-Aldrich), 1% penicillin-streptomycin (Gibco) and 0.5% fungizone (Amphotericin B; Gibco). Following short rinsing steps in 70% ethanol and phosphate-buffered saline (PBS; Gibco), tissue was minced into small (˜1 mm^2) fragments, and further dissociated using collagenase VI (3 mg/ml; Thermo Fisher Scientific) and dispase II (4 mg/ml; Sigma-Aldrich) for 2 h at 37° C., while regularly pipetting up and down. The single cells and few small cell clusters were collected through a 40 μm cell strainer (Corning) while removing the remaining larger and fibrous tissue fragments.
(§3) The dissociated dental follicle cell material was resuspended in a mixture of serum-free defined medium (SFDM; Thermo Fisher Scientific; Table 4) and growth factor-reduced Matrigel (Corning) in a 30:70 ratio, which was plated in 48-well plates at 20,000 cells per 20 μL drop. After solidification, tooth organoid medium (TOM; Table 1), unless indicated otherwise, was supplemented. ROCK inhibitor (RI; 10 μM; Merck Millipore) was added the first day of seeding (or passaging). Organoid cultures were kept at 37° C. in a 1.9% CO2 incubator, and medium was refreshed every 2 to 3 days, each time supplemented with fungizone (0.1%).

tooth organoids [2] = test: EGF supplementation of tooth organoid cultures (TOM+EGF): proliferation and EMT; assay type: cell-based, human
Description: To establish organoids from primary tissues, supplementation of EGF is generally found quintessential. […] In vivo, it is known that elevated EGF levels in the epithelial cell rests of Malassez compartment (as, for instance, occurring upon tooth movement, infection or trauma) activates epithelial cell rests of Malassez cell proliferation [Davis (2018) J. Vet. Dent. 35, 290-298]. […] It has been proposed that EMT induction in the epithelial cell rests of Malassez (as, for instance, occurring upon damaging tooth impact) enables the cells to migrate and eventually contribute to regeneration of neighbouring tissues [Davis (2018) J. Vet. Dent. 35, 290-298].
as §3, §1
as §2, with “Glyceraldehyde-3-phosphate dehydrogenase (GAPDH) was included as housekeeping gene.” left out

Molecule: c1ccc(-c2nn3c(c2-c2ccnc4cc(OCCN5CCOCC5)ccc24)CCC3)nc1 [LY2109761, reference compound]
- AMTN expression in the assembloids (assembloids): reduced
- ODAM protein expression in the assembloids (assembloids): completely abolished
- effect of TGFβ on ODAM and AMTN expression (tooth organoids [1]; inhibitor 5 μM added simultaneously with TGFβ in MIM): blocked
- upregulated ODAM and AMTN expression in MIM (tooth organoids [1]; inhibitor 5 μM, without exogenous TGFβ): strongly reduced

Molecule: Oc1ccc(-c2nc(-c3ccncc3)c(-c3ccc(F)cc3)[nH]2)cc1 [SB202190, reference compound]
- need of the factor for efficient organoid formation (human dental follicle): needed for efficient organoid formation

Molecule: NC(=O)c1cccnc1 [nicotinamide, reference compound]
- need of the factor for efficient organoid formation (human dental follicle): needed for efficient organoid formation

Molecule: FGF2
- need of the factor for efficient organoid formation (human dental follicle): needed for efficient organoid formation

Molecule: epidermal growth factor [EGF]
- number of proliferating (KI67+) cells in the organoids (tooth organoids [2]; EGF 50 ng/ml to initiating cultures, P0, day 7): increased number
- proliferation (tooth organoids [2]; EGF 50 ng/ml, P0, day 14): decline in proliferation
- EMT / VIM expression in the organoids' border (tooth organoids [2]; EGF 50 ng/ml, P0, day 14, colocalized with CK5 or P63): induction of an EMT process
- VIM+ cells after EGF exposure following growth and expansion in TOM (tooth organoids [2]; P5, day 14, also cell migration out of organoids): appearance of VIM^+ cells

Molecule: insulin-like growth factor-1 [IGF1]
- need of the factor for efficient organoid formation (human dental follicle): needed for efficient organoid formation

Molecule: sonic hedgehog [SHH]
- need of the factor for efficient organoid formation (human dental follicle): needed for efficient organoid formation

Molecule: transforming growth factor-beta [TGFβ]
- VIM expression in the epithelial (CK5+) organoids (tooth organoids [1]; MIM with TGFβ): further increased
- AMTN gene expression (tooth organoids [1]; MIM with TGFβ 10 ng/ml, RT-qPCR): increased expression
- expression of periodontal ligament-specific genes POSTN and COL3A1 (tooth organoids [1]; MIM with TGFβ, RT-qPCR): significantly stimulated
- ODAM expression (immunofluorescence) (tooth organoids [1]; TOM-grown P5 organoids switched to MIM with TGFβ 10 ng/ml): further upregulated

B1: FGF10 (protein, UniProt O15520 38-208, looked up)
Fibroblast growth factor 10: QALGQDMVSPEATNSSSSSFSSPSSAGRHVRSYNHLQGDVRWRKLFSFTKYFLKIEKNGKVSGTKKENCPYSILEITSVEIGVVAVKAINSNYYLAMNKKGKLYGSKEFNNDCKLKERIEENGYNTYASFNWQHNGRQMYVALNGKGAPRRGQKTRRKNTSAHFLPMVVHS
notes: fibroblast growth factor
- need of the factor for efficient organoid formation (human dental follicle): needed for efficient organoid formation

B2: R-spondin 1 (protein, UniProt Q2MKA7 21-263, looked up)
R-spondin-1: SRGIKGKRQRRISAEGSQACAKGCELCSEVNGCLKCSPKLFILLERNDIRQVGVCLPSCPPGYFDARNPDMNKCIKCKIEHCEACFSHNFCTKCKEGLYLHKGRCYPACPEGSSAANGTMECSSPAQCEMSEWSPWGPCSKKQQLCGFRRGSEERTRRVLHAPVGDHAACSDTKETRRCTVRRVPCPEGQKRRKGGQGRRENANRNLARKESKEAGAGSRRRKGQQQQQQQGTVGPLTSAGPA
- need of the factor for efficient organoid formation (human dental follicle): needed for efficient organoid formation

B3: Noggin (protein, UniProt Q13253 28-232, looked up)
Noggin: QHYLHIRPAPSDNLPLVDLIEHPDPIFDPKEKDLNETLLRSLLGGHYDPGFMATSPPEDRPGGGGGAAGGAEDLAELDQLLRQRPSGAMPSEIKGLEFSEGLAQGKKQRLSKKLRRKLQMWLWSQTFCPVLYAWNDLGSRFWPRYVKVGSCFSKRSCSVPEGMVCKPSKSVHLTVLRWRCQRRGGQRCGWIPIQYPIISECKCSC
- need of the factor for efficient organoid formation (human dental follicle): needed for efficient organoid formation

B4: FGF8 (protein, UniProt P55075 23-233, looked up)
Fibroblast growth factor 8: QEGPGRGPALGRELASLFRAGREPQGVSQQHVREQSLVTDQLSRRLIRTYQLYSRTSGKHVQVLANKRINAMAEDGDPFAKLIVETDTFGSRVRVRGAETGLYICMNKKGKLIAKSNGKGKDCVFTEIVLENNYTALQNAKYEGWYMAFTRKGRPRKGSKTRQHQREVHFMKRLPRGHHTTEQSLRFEFLNYPPFTRSLRGSQRTWAPEPR
notes: fibroblast growth factor
- need of the factor for efficient organoid formation (human dental follicle): needed for efficient organoid formation
